Structures are written as SMILES.

The experiment addresses T1, His-hMAGL (recombinant polyhistidine tagged human MAGL protein) (Homo sapiens, UniProt Q99685).
T1 construct: made in house; host or cells: E. coli BL21(DE3)
T1 sequence (Q99685 1-303): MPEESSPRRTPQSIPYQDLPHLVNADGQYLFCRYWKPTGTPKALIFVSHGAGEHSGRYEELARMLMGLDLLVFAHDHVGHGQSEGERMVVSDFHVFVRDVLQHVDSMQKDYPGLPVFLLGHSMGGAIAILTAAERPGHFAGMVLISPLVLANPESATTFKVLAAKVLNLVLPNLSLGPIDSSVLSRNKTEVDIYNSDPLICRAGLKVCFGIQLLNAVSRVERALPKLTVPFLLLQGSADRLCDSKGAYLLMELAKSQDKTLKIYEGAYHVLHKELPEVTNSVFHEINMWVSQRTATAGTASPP
The experiment in a line: Measurement of MAGL inhibitory activity (arachidonic acid production from 2-arachidonylglycerol, RapidFire-mass spectrometry). In kind it is biochemical. The settings on record: MAGL inhibitory rate, test compound 10 μM, 60 min preincubation, 2-arachidonylglycerol substrate. The method in brief: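 Arachidonic acid formed was quantified by online solid-phase extraction and triple-quadrupole MS in negative SRM mode against a d8 internal standard. Reaction: recombinant His-hMAGL (7.5 ng/mL, pH 7.5 Tris buffer with Triton X-100 and BSA) plus 2-AG (5 μL of 150 μM stock) for 10 min at room temperature, quenched with 2% formic acid. Percent inhibition corrected for enzyme-free background.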
Consider `Cc1c(C(=O)N2CC3(CCC(=O)N3)C2)sc2cccc(F)c12` [Example 142, 2-((4-fluoro-3-methyl-1-benzothiophen-2-yl)carbonyl)-2,5-diazaspiro[3.4]octan-6-one], for which the inhibition – broadly, the share of the control response that was lost under treatment – at 10 µM is 96%.
Consider `O=C1CCC2(CN(C(=O)c3sc4cc(-c5cccc(C(F)(F)F)c5)ccc4c3Cl)C2)N1` [Example 196, 2-((3-chloro-6-(3-(trifluoromethyl)phenyl)-1-benzothiophen-2-yl)carbonyl)-2,5-diazaspiro[3.4]octan-6-one], for which the inhibition at 10 µM was found to be 99%.
In the case of `O=C1CCC2(CN(C(=O)c3ccc(-c4cc(F)c(F)cc4F)cc3)C2)N1` [Example 70, 2-((2′,4′,5′-trifluorobiphenyl-4-yl)carbonyl)-2,5-diazaspiro[3.4]octan-6-one], the inhibition at 10 µM came to 97%.
As to `O=C1CCC2(CN(C(=O)c3cc4cc(OCc5ccc(Cl)cc5Cl)ccc4s3)C2)N1` [Example 149, 2-((5-((2,4-dichlorobenzyl)oxy)-1-benzothiophen-2-yl)carbonyl)-2,5-diazaspiro[3.4]octan-6-one], the inhibition at 10 µM was 83%.
For `Cc1ccc(-c2ccc3c(Cl)c(C(=O)N4CC5(CCC(=O)N5)C4)sc3c2)cn1` [Example 227, 2-((3-chloro-6-(6-methylpyridin-3-yl)-1-benzothiophen-2-yl)carbonyl)-2,5-diazaspiro[3.4]octan-6-one], the inhibition at 10 µM was 99%.
The result for `COc1ccc(Cl)c(-c2ccc(C(=O)N3CC4(CCC(=O)N4)C3)cc2)c1` [Example 82, 2-((2′-chloro-5′-methoxybiphenyl-4-yl)carbonyl)-2,5-diazaspiro[3.4]octan-6-one] reads 93%; that for `COc1ccc2sc(C(=O)N3CC4(CCC(=O)N4)C3)c(Br)c2c1` [Example 152, 2-((3-bromo-5-methoxy-1-benzothiophen-2-yl)carbonyl)-2,5-diazaspiro[3.4]octan-6-one], 100%; that for `COc1ccc(-c2ccc3c(Cl)c(C(=O)N4CC5(CCC(=O)N5)C4)sc3c2)cc1` [Example 193, 2-((3-chloro-6-(4-methoxyphenyl)-1-benzothiophen-2-yl)carbonyl)-2,5-diazaspiro[3.4]octan-6-one], 100%.
`O=C1NC2(CO1)CN(C(=O)c1sc3c(C(F)(F)F)cccc3c1Cl)C2` [Example 257, 2-((3-chloro-7-(trifluoromethyl)-1-benzothiophen-2-yl)carbonyl)-7-oxa-2,5-diazaspiro[3.4]octan-6-one]: the inhibition at 10 µM worked out at 100%.
`O=C1NC2(CO1)CN(C(=O)c1sc3c(F)ccc(OC(F)(F)F)c3c1Cl)C2` [Example 301, 2-((3-chloro-7-fluoro-4-(trifluoromethoxy)-1-benzothiophen-2-yl)carbonyl)-7-oxa-2,5-diazaspiro[3.4]octan-6-one]: the inhibition at 10 µM is 100%.
On to `O=C1NC2(CO1)CN(C(=O)c1sc3cc(C(F)(F)F)cc(OC(F)F)c3c1Cl)C2` [Example 305, 2-((3-chloro-4-(difluoromethoxy)-6-(trifluoromethyl)-1-benzothiophen-2-yl)carbonyl)-7-oxa-2,5-diazaspiro[3.4]octan-6-one], for which the inhibition at 10 µM came to 100%.
Regarding `O=C1CCC2(CN(C(=O)c3ccc(-c4cccc(C(F)(F)F)c4)c(C(F)(F)F)c3)C2)N1` [Example 131, 2-((2,3′-bis(trifluoromethyl)biphenyl-4-yl)carbonyl)-2,5-diazaspiro[3.4]octan-6-one], the inhibition at 10 µM came to 99%.
`Cc1cscc1-c1ccc2c(Cl)c(C(=O)N3CC4(CCC(=O)N4)C3)sc2c1` [Example 236, 2-((3-chloro-6-(4-methyl-3-thienyl)-1-benzothiophen-2-yl)carbonyl)-2,5-diazaspiro[3.4]octan-6-one]: the inhibition at 10 µM amounted to 100%.
On to `O=C1NC2(CO1)CN(C(=O)[C@H]1C[C@@H](OCc3ccc(Cl)cc3Cl)C1)C2` [Example 349, 2-((cis-3-((2,4-dichlorobenzyl)oxy)cyclobutyl)carbonyl)-7-oxa-2,5-diazaspiro[3.4]octan-6-one], for which the inhibition at 10 µM came to 100%.
Consider `O=C1CCC2(CN(C(=O)c3ccc(-c4ccc5sncc5c4)cc3)C2)N1` [Example 72, 2-(4-(1,2-benzothiazol-5-yl)benzoyl)-2,5-diazaspiro[3.4]octan-6-one], for which the inhibition at 10 µM worked out at 97%.
The result for `Cc1ccc(-c2ccc3c(Cl)c(C(=O)N4CC5(CCC(=O)N5)C4)sc3c2)s1` [Example 232, 2-((3-chloro-6-(5-methyl-2-thienyl)-1-benzothiophen-2-yl)carbonyl)-2,5-diazaspiro[3.4]octan-6-one] reads 99%; that for `O=C1CCC2(CN(C(=O)c3sc4cc(-c5cc(Cl)ccc5F)ccc4c3Cl)C2)N1` [Example 222, 2-((3-chloro-6-(5-chloro-2-fluorophenyl)-1-benzothiophen-2-yl)carbonyl)-2,5-diazaspiro[3.4]octan-6-one], 99%.
In the case of `O=C1CCC2(CN(C(=O)c3sc4cc(-c5ccc(C(F)(F)F)cc5)ccc4c3Cl)C2)N1` [Example 197, 2-((3-chloro-6-(4-(trifluoromethyl)phenyl)-1-benzothiophen-2-yl)carbonyl)-2,5-diazaspiro[3.4]octan-6-one], the inhibition at 10 µM is 90%.
As to `O=C1NC2(CCN(C(=O)c3sc4c(F)c(OC(F)(F)F)cc(F)c4c3Cl)C2)CO1` (stereo not shown) [Example 336, 7-((3-chloro-4,7-difluoro-6-(trifluoromethoxy)-1-benzothiophen-2-yl)carbonyl)-3-oxa-1,7-diazaspiro[4.4]nonan-2-one], the inhibition at 10 µM is 100%.
On to `O=C1NC2(CCN(C(=O)c3sc4cc(C(F)(F)F)ccc4c3Cl)C2)CO1` (stereo not shown) [Example 365, 7-((3-chloro-6-(trifluoromethyl)-1-benzothiophen-2-yl)carbonyl)-3-oxa-1,7-diazaspiro[4.4]nonan-2-one], for which the inhibition at 10 µM stood at 100%.
Consider `O=C1CCC2(CN(C(=O)c3ccc(-c4cc(F)ccc4Cl)cc3)C2)N1` [Example 79, 2-((2′-chloro-5′-fluorobiphenyl-4-yl)carbonyl)-2,5-diazaspiro[3.4]octan-6-one], for which the inhibition at 10 µM was found to be 92%.
Turning to `O=C1NC2(CCN(C(=O)c3sc4c(F)c(C(F)(F)F)ccc4c3C(F)F)C2)CO1` (stereo not shown) [Example 333, 7-((3-(difluoromethyl)-7-fluoro-6-(trifluoromethyl)-1-benzothiophen-2-yl)carbonyl)-3-oxa-1,7-diazaspiro[4.4]nonan-2-one], the inhibition at 10 µM amounted to 99%.
In the case of `Cc1ccc(CO[C@H]2C[C@@H](C(=O)N3CC4(COC(=O)N4)C3)C2)cc1Cl` [Example 356, 2-((cis-3-((3-chloro-4-methylbenzyl)oxy)cyclobutyl)carbonyl)-7-oxa-2,5-diazaspiro[3.4]octan-6-one], the inhibition at 10 µM is 100%.
For the compound `COC(=O)c1ccc(-c2ccc(CC3CCN(C(=O)N4CC5(CCC(=O)N5)C4)CC3)cc2)cc1` [Example 109, methyl 4′-((1-((6-oxo-2,5-diazaspiro[3.4]oct-2-yl)carbonyl)piperidin-4-yl)methyl)biphenyl-4-carboxylate], the inhibition at 10 µM stood at 98%.
For `COc1ccc(-c2ccc(C(=O)N3CC4(CCC(=O)N4)C3)cc2)c(Cl)c1` [Example 85, 2-((2′-chloro-4′-methoxybiphenyl-4-yl)carbonyl)-2,5-diazaspiro[3.4]octan-6-one], the inhibition at 10 µM is 94%.

Values taken from US10610520B2, “Heterocyclic compound” (Takeda Pharmaceutical Company Limited, priority 2016, dated 2020).
